System: B16 cells gene expression
Assay: RNA-Seq (DEGs, GSEA, heatmaps) of B16 cells
Settings: B16 cells

## COc1cc(N)cc2c1nc(C(F)F)n2-c1nc(N2CCCOCC2)nc(N2CCOCC2)n1 [KTC1101, 2-(difluoromethyl)-4-methoxy-1-(4-morpholino-6-(1,4-oxazepan-4-yl)-1,3,5-triazin-2-yl)-1H-benzo[d]imidazol-6-amine]
KTC1101 0.2μM, GSEA KEGG
  enrichmentScore, mmu04211 Longevity regulating pathway: 0.2589
  enrichmentScore, mmu04213 Longevity regulating pathway - multiple species: 0.2778
  enrichmentScore, mmu04215 Apoptosis - multiple species: 0.3327
  enrichmentScore, mmu04216 Ferroptosis: -0.2787
  enrichmentScore, mmu04217 Necroptosis: -0.2455
  enrichmentScore, mmu04270 Vascular smooth muscle contraction: 0.2845
  enrichmentScore, mmu04360 Axon guidance: 0.2929
  enrichmentScore, mmu04392 Hippo signaling pathway - multiple species: 0.3945
  enrichmentScore, mmu04514 Cell adhesion molecules: 0.3446
  enrichmentScore, mmu04520 Adherens junction: 0.258
  enrichmentScore, mmu04530 Tight junction: -0.1527
  enrichmentScore, mmu04550 Signaling pathways regulating pluripotency of stem cells: 0.3252
  enrichmentScore, mmu04611 Platelet activation: 0.2724
  enrichmentScore, mmu04612 Antigen processing and presentation: 0.2974
  enrichmentScore, mmu04622 RIG-I-like receptor signaling pathway: 0.2627
  enrichmentScore, mmu04623 Cytosolic DNA-sensing pathway: 0.3684
  enrichmentScore, mmu04650 Natural killer cell mediated cytotoxicity: 0.2671
  enrichmentScore, mmu04658 Th1 and Th2 cell differentiation: 0.359
  enrichmentScore, mmu04660 T cell receptor signaling pathway: 0.174
  enrichmentScore, mmu04662 B cell receptor signaling pathway: 0.2749
  enrichmentScore, mmu04666 Fc gamma R-mediated phagocytosis: -0.2944
  enrichmentScore, mmu04670 Leukocyte transendothelial migration: 0.2117
  enrichmentScore, mmu04714 Thermogenesis: -0.2154
  enrichmentScore, mmu04720 Long-term potentiation: 0.2329
  enrichmentScore, mmu04723 Retrograde endocannabinoid signaling: 0.2816
  enrichmentScore, mmu04726 Serotonergic synapse: 0.3744
  enrichmentScore, mmu04727 GABAergic synapse: 0.3552
  enrichmentScore, mmu04728 Dopaminergic synapse: 0.2754
  enrichmentScore, mmu04730 Long-term depression: 0.3483
  enrichmentScore, mmu04750 Inflammatory mediator regulation of TRP channels: 0.2734
  enrichmentScore, mmu04910 Insulin signaling pathway: 0.2919
  enrichmentScore, mmu04912 GnRH signaling pathway: 0.3311
  enrichmentScore, mmu04915 Estrogen signaling pathway: 0.2687
  enrichmentScore, mmu04916 Melanogenesis: 0.2873
  enrichmentScore, mmu04917 Prolactin signaling pathway: 0.2949
  enrichmentScore, mmu04920 Adipocytokine signaling pathway: 0.3361
  enrichmentScore, mmu04929 GnRH secretion: -0.3021
  enrichmentScore, mmu04930 Type II diabetes mellitus: 0.385
  enrichmentScore, mmu04932 Non-alcoholic fatty liver disease: -0.2292
  enrichmentScore, mmu04934 Cushing syndrome: 0.2719
  enrichmentScore, mmu04936 Alcoholic liver disease: 0.2103
  enrichmentScore, mmu04960 Aldosterone-regulated sodium reabsorption: 0.4243
  enrichmentScore, mmu04961 Endocrine and other factor-regulated calcium reabsorption: 0.3281
  enrichmentScore, mmu04962 Vasopressin-regulated water reabsorption: 0.3811
  enrichmentScore, mmu04970 Salivary secretion: 0.3709
  enrichmentScore, mmu04972 Pancreatic secretion: 0.3054
  enrichmentScore, mmu05017 Spinocerebellar ataxia: -0.2487
  enrichmentScore, mmu05031 Amphetamine addiction: 0.3398
  enrichmentScore, mmu05034 Alcoholism: 0.2877
  enrichmentScore, mmu05100 Bacterial invasion of epithelial cells: 0.1912
  enrichmentScore, mmu05132 Salmonella infection: -0.223
  enrichmentScore, mmu05133 Pertussis: 0.2038
  enrichmentScore, mmu05134 Legionellosis: 0.3271
  enrichmentScore, mmu05135 Yersinia infection: 0.1452
  enrichmentScore, mmu05145 Toxoplasmosis: 0.3104
  enrichmentScore, mmu05160 Hepatitis C: -0.1925
  enrichmentScore, mmu05162 Measles: 0.3001
  enrichmentScore, mmu05165 Human papillomavirus infection: 0.2105
  enrichmentScore, mmu05170 Human immunodeficiency virus 1 infection: 0.2282
  enrichmentScore, mmu05200 Pathways in cancer: 0.2563
  enrichmentScore, mmu05203 Viral carcinogenesis: 0.2271
  enrichmentScore, mmu05204 Chemical carcinogenesis - DNA adducts: -0.3876
  enrichmentScore, mmu05206 MicroRNAs in cancer: 0.2735
  enrichmentScore, mmu05207 Chemical carcinogenesis - receptor activation: 0.2555
  enrichmentScore, mmu05210 Colorectal cancer: 0.2135
  enrichmentScore, mmu05211 Renal cell carcinoma: -0.2497
  enrichmentScore, mmu05212 Pancreatic cancer: -0.2279
  enrichmentScore, mmu05213 Endometrial cancer: -0.2692
  enrichmentScore, mmu05214 Glioma: 0.2912
  enrichmentScore, mmu05216 Thyroid cancer: 0.217
  enrichmentScore, mmu05218 Melanoma: 0.3678
  enrichmentScore, mmu05219 Bladder cancer: 0.2813
  enrichmentScore, mmu05220 Chronic myeloid leukemia: 0.2762
  enrichmentScore, mmu05223 Non-small cell lung cancer: -0.2111
  enrichmentScore, mmu05231 Choline metabolism in cancer: 0.3293
  enrichmentScore, mmu05235 PD-L1 expression and PD-1 checkpoint pathway in cancer: 0.291
  enrichmentScore, mmu05412 Arrhythmogenic right ventricular cardiomyopathy: 0.3444
  enrichmentScore, mmu05416 Viral myocarditis: 0.3314
  enrichmentScore, mmu05417 Lipid and atherosclerosis: 0.3016
[…], KTC 0.2μM
  NES: Coronavirus disease - COVID-19: 2.023
  enrichmentScore: Coronavirus disease - COVID-19: 0.5276
